Measured values taken from PubChem BioAssay (NCI).
Several values for one entry are separate records, joined by “and”; a condition that tells them apart may be missing. Identical values can stand only once.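 Cells were grown in 96-well plates and exposed to each compound for 48 hours at five concentrations; endpoints were interpolated linearly between bracketing concentrations, or set to the highest concentration if not reached. At the GI50, growth is halved. At the TGI there is no net growth.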

Key:
Assay in all cases: DTP human tumour cell line panel, 48 h
SK-MEL-5 melanoma = system: SK-MEL-5 melanoma
NCI-H226 lung = system: NCI-H226 lung
A498 renal = system: A498 renal
RPMI-8226 leukemia = system: RPMI-8226 leukemia
IGROV1 ovarian = system: IGROV1 ovarian
HL-60(TB) leukemia = system: HL-60(TB) leukemia
T-47D breast = system: T-47D breast
COLO 205 colon = system: COLO 205 colon
NCI-H23 lung = system: NCI-H23 lung
SR leukemia = system: SR leukemia
CCRF-CEM leukemia = system: CCRF-CEM leukemia

Compound	TGI (SK-MEL-5 melanoma)	TGI (NCI-H226 lung)	TGI (A498 renal)	TGI (RPMI-8226 leukemia)	TGI (IGROV1 ovarian) [µM]	TGI (HL-60(TB) leukemia) [µM]	TGI (T-47D breast)	TGI (COLO 205 colon)	TGI (NCI-H23 lung)	TGI (SR leukemia)	TGI (CCRF-CEM leukemia)	GI50 (SK-MEL-5 melanoma) [µM]	GI50 (NCI-H226 lung) [µM]	GI50 (A498 renal) [µM]	GI50 (RPMI-8226 leukemia) [µM]	GI50 (T-47D breast) [µM]	GI50 (COLO 205 colon) [µM]	GI50 (SR leukemia) [µM]	GI50 (CCRF-CEM leukemia) [µM]
Nc1c(F)c(F)c2c(c1F)N(CCCCCl)c1ccccc1S2	> 100 µM	> 100 µM	> 100 µM	> 100 µM	> 100	> 100	> 100 µM	> 100 µM	> 100 µM	> 100 µM	> 100 µM	–	–	–	–	–	–	–	–
CC1(C)N=C(C(N)=O)c2ncn(Cc3ccccc3)c2N1	> 100 µM	> 100 µM	> 100 µM	> 100 µM	> 100	> 100	> 100 µM	> 100 µM	> 100 µM	> 100 µM	> 100 µM	–	–	–	–	–	–	–	–
COc1ccc2nc3cccc([N+](=O)[O-])c3c(NCCC(=O)O)c2c1	> 10 µM	> 10 µM	> 10 µM	> 10 µM	> 10	> 10	> 10 µM	> 10 µM	> 10 µM	> 10 µM	> 10 µM	–	–	–	–	–	–	–	–
OC1C2CCCCN2C[C@@H](O)[C@H]1O (stereo not given in full)	> 100 µM	> 100 µM	> 100 µM	> 100 µM	> 100	> 100	> 100 µM	> 100 µM	> 100 µM	> 100 µM	> 100 µM	–	–	–	–	–	–	–	–
O=[N+]([O-])C(C(Cl)=C(Cl)Cl)=C(N1CCCCC1)N1CCCCC1	> 100 µM	> 100 µM	> 100 µM	> 100 µM	> 100	> 100	> 100 µM	> 100 µM	> 100 µM	> 100 µM	> 100 µM	–	–	–	–	–	–	–	–
c1ccc2c(c1)nc1ccccn12	> 100 µM	> 100 µM	29.5 µM	> 100 µM	> 100	> 100	> 100 µM	> 100 µM	> 100 µM	> 100 µM	> 100 µM	–	–	–	–	–	–	–	–
CNC(=O)O/N=C1\N(C)CN(c2ccccc2)C12CCN(CCCC(=O)c1ccc(F)cc1)CC2	33 µM	> 100 µM	> 100 µM	> 100 µM	> 100	> 100	> 100 µM	33.2 µM	> 100 µM	> 100 µM	> 100 µM	–	–	–	–	–	–	–	–
CC1(C)CC(=O)c2c(-c3ccc(Cl)cc3)c(C#N)c(=S)n(C3OC(CO)C(O)C(O)C3O)c2C1 (stereo not given)	34.8 µM	73 µM	> 100 µM	> 100 µM	> 100	> 100	89.6 µM	92.8 µM	> 100 µM	> 100 µM	> 100 µM	–	–	–	–	–	–	–	–
COc1ccc2nc3c4c(nccc4c2c1)-c1ncccc1C3=O	0.111 µM	0.445 µM	0.224 µM	0.236 µM	0.279	0.165	4.81 µM	1.28 µM	0.265 µM	0.0189 µM	2.57 µM	–	–	–	–	–	–	–	–
COc1ccc(/C(C)=C2\CCCN(Cc3ccccc3)C2)cc1	36.8 µM	63.6 µM	> 100 µM	47.4 µM	94.3	47.5	77 µM	32.5 µM	79.6 µM	42.2 µM	62.2 µM	–	–	–	–	–	–	–	–
COc1ccc2nc3ccc(OC)cc3c(S(=O)Cc3ccccc3)c2c1 (stereo not given)	30.5 µM	38.5 µM	38.9 µM	6.6 µM	21.5	35.9	4.87 µM	25.9 µM	37.5 µM	> 29.8 µM	> 22.1 µM	–	–	–	–	–	–	–	–
O=C(Nn1c(-c2ccccc2)nc2ccccc2c1=O)c1cccc([N+](=O)[O-])c1	> 100 µM	> 100 µM	> 100 µM	> 100 µM	> 100	> 100	> 100 µM	> 100 µM	> 100 µM	> 100 µM	> 100 µM	–	–	–	–	–	–	–	–
COC(=O)CN1Cc2cc(C)cc(c2O)CN(CC(=O)OC)Cc2cc(C)cc(c2O)CN(CC(=O)OC)Cc2cc(C)cc(c2O)CN(CC(=O)OC)Cc2cc(C)cc(c2O)C1	50 µM and > 100 µM	47.2 µM and > 100 µM	50 µM and > 100 µM	50 µM and > 100 µM	50	16	50 µM and > 100 µM	50 µM and > 100 µM	50 µM and > 100 µM	50 µM and > 100 µM	50 µM and 33.2 µM	37.7	11.1	> 100	87.6	36.4	28.6	18	5.37
O=C1c2ccccc2C(=O)c2c1oc1cc(O)c(Cl)cc21	1.58 µM	34.3 µM	34 µM	55.3 µM	31.3	32.9	48.6 µM	3.27 µM	3.27 µM	> 54.6 µM	55.3 µM	–	–	–	–	–	–	–	–
COc1ccc(OC(=O)N2C/C(=C\c3ccccc3)C(=O)/C(=C/c3ccccc3)C2)cc1	8.84 µM	30.3 µM	10.6 µM	0.172 µM	16.3	14	48.1 µM	15.7 µM	17.1 µM	2.64 µM	6.73 µM	–	–	–	–	–	–	–	–
COc1cc2c(cc1NC(=O)c1ccccc1)c1c(n2S(=O)(=O)c2ccccc2)CCN(S(=O)(=O)c2ccccc2)C1	> 100 µM	> 100 µM	> 100 µM	> 100 µM	> 100	> 100	> 100 µM	> 100 µM	> 100 µM	> 100 µM	> 100 µM	–	–	–	–	–	–	–	–
CC/C(Cl)=N\OC(=O)Nc1ccc(F)c(Cl)c1	29 µM	51.3 µM	30.8 µM	> 100 µM	34.7	4.33	21.3 µM	8.16 µM	45.7 µM	13.1 µM	4.91 µM	–	–	–	–	–	–	–	–
